Reference: the NIST ThermoML archive (doi:10.1021/je050294+)

Legend:
[1] = xn = mol fraction of the nth substance listed; conditions: Liquid; for speed of sound: Linear variable-path acoustic interferometer; for mass density: Vibrating tube method
[2] = excess molar enthalpy (molar enthalpy of mixing); xn = mol fraction of the nth substance listed; conditions: 101 kPa, Liquid, Flow calorimetry

C=C1CCC2CC1C2(C)C (stereo not drawn) [β-pinene] + CCC(C)O
[1], 101.3 kPa
Conditions	mass density [kg/m3]	speed of sound [m/s]
283.15 K, x1 = 0.0526	820.26	1271.9
283.15 K, x1 = 0.1031	824.88	1276.6
283.15 K, x1 = 0.2058	833.37	1285.1
283.15 K, x1 = 0.3006	840.38	1292.5
283.15 K, x1 = 0.4019	847.14	1299.8
283.15 K, x1 = 0.5035	853.29	1307.2
283.15 K, x1 = 0.6023	858.87	1314.9
283.15 K, x1 = 0.7047	864.32	1323.5
283.15 K, x1 = 0.7995	869.14	1332.4
283.15 K, x1 = 0.8988	873.93	1342.4
283.15 K, x1 = 0.9401	875.92	1347
298.15 K, x1 = 0.0522	807.98	1216.6
298.15 K, x1 = 0.105	812.54	1220.2
298.15 K, x1 = 0.206	820.79	1227.3
298.15 K, x1 = 0.3006	827.65	1233.5
298.15 K, x1 = 0.3995	834.25	1240
298.15 K, x1 = 0.5017	840.58	1247.2
298.15 K, x1 = 0.6096	846.71	1255.5
298.15 K, x1 = 0.7011	851.61	1263
298.15 K, x1 = 0.8035	856.93	1272.5
298.15 K, x1 = 0.9067	862.02	1282.6
298.15 K, x1 = 0.9449	863.9	1287
313.15 K, x1 = 0.0526	794.95	1161.7
313.15 K, x1 = 0.0997	799.22	1164.1
313.15 K, x1 = 0.2028	807.25	1170.4
313.15 K, x1 = 0.2999	814.22	1175.7
313.15 K, x1 = 0.4043	821.27	1182.5
313.15 K, x1 = 0.5088	827.69	1189.9
313.15 K, x1 = 0.6027	833.19	1197
313.15 K, x1 = 0.6993	838.59	1205
313.15 K, x1 = 0.8035	844.16	1214.6
313.15 K, x1 = 0.896	848.93	1223.2
313.15 K, x1 = 0.9453	851.52	1228.7

excess molar enthalpy [kcal/mol], [2]
Conditions	283.15 K	298.15 K	313.15 K
x1 = 0.066	0.0306	0.0413	0.0397
x1 = 0.134	0.0629	0.087	0.0968
x1 = 0.259	0.111	0.152	0.179
x1 = 0.38	0.143	0.196	0.234
x1 = 0.489	0.164	0.223	0.2682
x1 = 0.581	0.172	0.232	0.2806
x1 = 0.677	0.169	0.227	0.2768
x1 = 0.765	0.155	0.208	0.257
x1 = 0.845	0.131	0.177	0.223
x1 = 0.927	0.0925	0.127	0.161
x1 = 0.963	0.0669	0.0903	0.112

C=C1CCC2CC1C2(C)C (stereo not drawn) [β-pinene] + CCCCO
[1], 101 kPa
Conditions	mass density [kg/m3]	speed of sound [m/s]
283.15 K, x1 = 0.0494	822.4	1295.8
283.15 K, x1 = 0.1023	827.32	1299.6
283.15 K, x1 = 0.204	835.8	1305.9
283.15 K, x1 = 0.3052	843.23	1311.7
283.15 K, x1 = 0.4007	849.5	1316.8
283.15 K, x1 = 0.5005	855.39	1321.9
283.15 K, x1 = 0.5929	–	1323.6
283.15 K, x1 = 0.695	865.44	1332
283.15 K, x1 = 0.7975	870.17	1338.1
283.15 K, x1 = 0.9009	874.7	1345.2
283.15 K, x1 = 0.9179	875.44	1347.3
298.15 K, x1 = 0.054	811.4	1243.7
298.15 K, x1 = 0.1027	815.79	1246.2
298.15 K, x1 = 0.1893	822.86	1250.3
298.15 K, x1 = 0.2992	830.92	1255.2
298.15 K, x1 = 0.4011	837.49	1259.4
298.15 K, x1 = 0.4987	843.18	1263.5
298.15 K, x1 = 0.6041	848.79	1268.1
298.15 K, x1 = 0.6946	853.25	1272.3
298.15 K, x1 = 0.7745	856.95	1276.6
298.15 K, x1 = 0.9003	862.46	1284.6
298.15 K, x1 = 0.9349	863.93	1287.4
313.15 K, x1 = 0.0493	799.21	1193.1
313.15 K, x1 = 0.1011	803.76	1194.6
313.15 K, x1 = 0.1988	811.57	1197.8
313.15 K, x1 = 0.3012	818.82	1201
313.15 K, x1 = 0.3998	825.01	1203.9
313.15 K, x1 = 0.5009	830.84	1207.3
313.15 K, x1 = 0.6003	836.12	1211.4
313.15 K, x1 = 0.7062	841.36	1216.2
313.15 K, x1 = 0.8017	845.7	1221.1
313.15 K, x1 = 0.8988	850.1	1227.1
313.15 K, x1 = 0.954	852.44	1231.4

excess molar enthalpy [kcal/mol], [2]
Conditions	283.15 K	298.15 K	313.15 K
x1 = 0.066	0.0117	0.0165	0.0213
x1 = 0.134	0.0253	0.0366	0.0468
x1 = 0.259	0.0514	0.0741	0.102
x1 = 0.371	0.0724	0.102	0.137
x1 = 0.489	0.0901	0.125	0.17
x1 = 0.591	0.101	0.138	0.186
x1 = 0.677	0.105	0.141	0.19
x1 = 0.765	0.0985	0.133	0.179
x1 = 0.856	0.0846	0.114	0.153
x1 = 0.927	0.0674	0.0889	0.116
x1 = 0.975	0.0435	0.0667	0.0786
